Results taken from patent US11965100B2, “Aggregation-induced emission luminogens useful for cancer cell discrimination and monitoring” (The Hong Kong University of Science and Technology, priority 2020, dated 2024).

Tests used:
[1] = Quantum yield in the solid state; assay type: physicochemical
Text: IVPI-2 is able to stain mitochondria in healthy live cancer cells. However, when Δψm decreases, IVPI-2 migrates into nucleolus. Since IVPI-2 is target-changeable according to the change of mitochondrial physiology, the chemical structure of IVPI-2 was modified in order to enhance the mitochondria to nucleolus migration. Iodide ion is a well-known effective fluorescent quencher due to its heavy-atom effect. The quantum yield of IVP-02 in the solid state is 4.3%, which is about 3 times than that of IVPI-02 (1.3%). An Exemplary synthetic route to certain embodiments of the compounds described herein is depicted in Scheme 1.

[2] = tested on: cancer cells (A549 and HeLa) and normal cells (COS7 and HLF); assay: CLSM imaging of separately stained cancer and normal cells; assay type: cell-based; conditions: 2 μM, 30 min, same staining and imaging conditions
Experimental: FIG. 4 CLSM images of live cancer cells (A549 and HeLa) and normal cells (COS7 and HLF) stained with 2 μM IVP-02 for 30 min, respectively. λex=488 nm, λem=500-650 nm. Scale bar=20 μm.
(§1) The bioimaging properties of IVP-02 in live cells were investigated by confocal laser scanning microscopy (CLSM). Cancer cells (A549 and HeLa) and normal cells (COS7 and HLF) were stained with IVP-02, respectively. […] So IVP-02 holds the high potential to differentiate cancer and normal cells. To verify this speculation, cancer and normal cells were co-cultured and stained with IVP-02. […] To precisely confirm the selectivity of IVP-02 to cancer cells, cancer cells A549 and normal cells HLF (A549 and HLF are both human lung cells) were seeded on different cover glasses, respectively. Then the two cover glasses were put in the same dish and stained with IVP-02 at the same time.

[3] = tested on: cancer cells (A549 and HeLa) co-cultured with normal cells (COS7 and HLF); assay: CLSM imaging of cancer cells co-cultured with normal cells; assay type: cell-based; conditions: 30 min
Experimental: (§2) FIG. 5 CLSM images of live cancer cells (A549 and HeLa) co-cultured with normal cells (COS7 and HLF) (A), and the images of A549 and HLF cells seeded on different cover glasses (Scale bar=20 μm) (B) stained with 2 μM IVP-02 for 30 min (Scale bar=50 μm), respectively. λex=488 nm, λem=500-650 nm.
(§3) FIG. 10 CLSM images of live cancer cells (A549) co-cultured with normal cells (COS7) (A), and the images of A549 and HLF cells seeded on different cover glasses Scale bar=20 μm (B) stained with 2 μM IVP-02, 04, 06, 22, 42, and 62 for 30 min Scale bar=50 μm, respectively. (The first column in B is the same as FIG. 3B) λex=488 nm, λem=500-650 nm.
FIG. 11 CLSM images of live cancer cells (HeLa) co-cultured with normal cells (COS7), stained with 2 μM IVP-02, 04, 06, 22, 42, and 62 for 30 min, respectively. λex=488 nm, λem=500-650 nm. Scale bar=20 μm.
FIG. 12 CLSM images of live cancer cells (A549) co-cultured with normal cells (HLF), stained with 2 μM IVP-02, 04, 06, 22, 42, and 62 for 30 min, respectively. λex=488 nm, λem=500-650 nm. Scale bar=20 μm.
as §1
(§4) Cancer cells A549 co-cultured with normal cells COS7 were stained with these molecules, respectively. […] Then HeLa cells co-cultured with COS7 cells (FIG. 11), and A549 cells co-cultured with HLF cells (FIG. 12) were also stained with these molecules, the results were similar with that in A549 cells co-cultured with COS7 cells. In addition to co-culturing, A549 cells and HLF cells were also seeded on different cover glasses and stained with these molecules. […] Based on the imaging results above, it can be concluded that the selectivity of these IVP molecules to cancer cells is also based on the length of alkyl chain at pyridinium salt side. Lengthening the alkyl chain at the pyridinium salt side will eliminate the selectivity to cancer cells.

A549 and HLF cells = assay: CLSM imaging of A549 and HLF cells seeded on different cover glasses in the same dish; assay type: cell-based, human; conditions: 2 μM, 30 min
Experimental: as §2, §3, §1, §4

A549 cells = assay: Mitochondrion-nucleolus migration on CCCP treatment, A549 cells; assay type: cell-based, human
Experimental: FIG. 15 Live A549 cells (A) and live A549 co-cultured with COS 7 cells, live HeLa co-cultured with COS7 cells (B) were pre-stained with 2 μM IVP-02 for 30 min, and treated with 20 μM CCCP for 5 min. Then CCCP was removed away and fresh culture medium was added for another 5 min. λex=488 nm, λem=500-650 nm. Scale bar=20 μm.
FIG. 18 Live A549 cells were pre-stained with 2 μM IVP-04, 22, 42, 06, 62 for 30 min, and treated with 20 μM CCCP for 5 min. Then CCCP was removed away and fresh culture medium was added for another 5 min, respectively. λex=488 nm, λem=500-650 nm. Scale bar=20 μm.
Monitoring cell viability is a highly valuable task for the fundamental researches in biology, pathology, and medicine. Then we investigated whether IVP-02 could monitor cell viability. Δψm is a very important indicator to characterize cell viability. With the loss of cell viability, Δψm would decrease, while with the recovery of cell viability, Δψm would also recover to the normal level. […] Carbonyl cyanide m-chlorophenyl hydrazone (CCCP) is a type of protonophore and can cause rapid acidification of mitochondria by collapsing Δψm. Cancer cells A549 were pre-stained with IVP-02 for 30 min. In FIG. 15A, in the beginning, IVP-02 stained mitochondria clearly. […] Hydrogen peroxide (H2O2) can inhibit the oxidation respiratory chain that would cause the loss of cell viability. Then live A549 and HeLa cells were pre-stained with IVP-02, and treated with 10 mM H2O2.
In addition to IVP-02, we further investigated whether other IVP molecules could monitor the viability of cancer cells through mitochondrion-nucleolus migration was investigated. A549 cells were pre-stained with IVP-04, 22, 42, 06, and 62, respectively, and then CCCP was added.

HeLa cells = assay: Two-photon imaging in live cells; assay type: cell-based; conditions: 2 μM, 30 min, λex 800 nm
Experimental: FIG. 22 (A) Two-photon microscopy images of live HeLa cells stained with 2 μM IVP-02 for 30 min. λex=800 nm, λem=495-540 nm. Scale bar=20 μm. (B) Viability of A549 cells after incubation with IVP-02, 04, 06, 22, 42, and 62 at different concentrations for 24 h.
Given the high two-photon absorption cross section values of IVP-02 excited by 800 nm, we performed in vitro two-photon imaging of IVP-02 in live HeLa cells.

Structure (SMILES): CC[n+]1ccc(/C=C/c2c[nH]c3ccccc23)cc1 [IVP-02]
- quantum yield [1]: 4.3%
- quantum yield relative to IVPI-02 [1]: about 3 times
- fluorescence intensity in normal cells versus cancer cells [2]: much weaker than that in cancer cells
- staining of co-cultured cancer and normal cells ([3]; A549 and HeLa co-cultured with COS7 and HLF, 2 μM): only cancer cells (A549 and HeLa) were highly illuminated
- staining of co-cultured cancer and normal cells ([3]; A549 co-cultured with COS7, 2 μM): only stain A549 cells
- staining of A549 and HLF cells on different cover glasses (A549 and HLF cells): only A549 cells on the upper cover glass were illuminated
- migration back to mitochondria after removal of CCCP (A549 cells; A549, CCCP removed, fresh medium 5 min): migrated back to mitochondria
- migration from mitochondria to nucleolus after addition of CCCP (A549 cells; A549, pre-stained 2 μM 30 min, 20 μM CCCP 5 min): released from mitochondria and migrated to nucleolus
- two-photon fluorescence imaging (HeLa cells): bright two-photon fluorescence
